Test results as given in patent publication US20130109682A1, “CYCLIC ETHER COMPOUNDS USEFUL AS KINASE INHIBITORS” (NOVARTIS AG, priority 2010, published 2013).

Experiments:
GSK3β = GSK3β (Homo sapiens, UniProt P49841); experiment: GSK3β ATP depletion assay; type: biochemical; conditions: read-out: GSK3b IC50
Method in brief: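 Human GSK3β (5 nM) preincubated 15 min with 10 μM biotinylated phospho-CREB peptide in pH 7.5 Tris buffer (15 mM MgCl2, 1 mM DTT, 0.1% BSA, 2.5% DMSO). Reaction started with 2 μM ATP and run to about 50% ATP depletion. Remaining ATP measured by KinaseGlo luminescence.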

hERG = molecular target: T1, hERG (Homo sapiens, UniProt Q12809); experiment: hERG binding assay ([3H] dofetilide displacement); conditions: dofetilide displacement; read-out: HERGdof IC50
T1 construct: host or cells: crude membrane suspension
T1 sequence (Q12809 whole entry): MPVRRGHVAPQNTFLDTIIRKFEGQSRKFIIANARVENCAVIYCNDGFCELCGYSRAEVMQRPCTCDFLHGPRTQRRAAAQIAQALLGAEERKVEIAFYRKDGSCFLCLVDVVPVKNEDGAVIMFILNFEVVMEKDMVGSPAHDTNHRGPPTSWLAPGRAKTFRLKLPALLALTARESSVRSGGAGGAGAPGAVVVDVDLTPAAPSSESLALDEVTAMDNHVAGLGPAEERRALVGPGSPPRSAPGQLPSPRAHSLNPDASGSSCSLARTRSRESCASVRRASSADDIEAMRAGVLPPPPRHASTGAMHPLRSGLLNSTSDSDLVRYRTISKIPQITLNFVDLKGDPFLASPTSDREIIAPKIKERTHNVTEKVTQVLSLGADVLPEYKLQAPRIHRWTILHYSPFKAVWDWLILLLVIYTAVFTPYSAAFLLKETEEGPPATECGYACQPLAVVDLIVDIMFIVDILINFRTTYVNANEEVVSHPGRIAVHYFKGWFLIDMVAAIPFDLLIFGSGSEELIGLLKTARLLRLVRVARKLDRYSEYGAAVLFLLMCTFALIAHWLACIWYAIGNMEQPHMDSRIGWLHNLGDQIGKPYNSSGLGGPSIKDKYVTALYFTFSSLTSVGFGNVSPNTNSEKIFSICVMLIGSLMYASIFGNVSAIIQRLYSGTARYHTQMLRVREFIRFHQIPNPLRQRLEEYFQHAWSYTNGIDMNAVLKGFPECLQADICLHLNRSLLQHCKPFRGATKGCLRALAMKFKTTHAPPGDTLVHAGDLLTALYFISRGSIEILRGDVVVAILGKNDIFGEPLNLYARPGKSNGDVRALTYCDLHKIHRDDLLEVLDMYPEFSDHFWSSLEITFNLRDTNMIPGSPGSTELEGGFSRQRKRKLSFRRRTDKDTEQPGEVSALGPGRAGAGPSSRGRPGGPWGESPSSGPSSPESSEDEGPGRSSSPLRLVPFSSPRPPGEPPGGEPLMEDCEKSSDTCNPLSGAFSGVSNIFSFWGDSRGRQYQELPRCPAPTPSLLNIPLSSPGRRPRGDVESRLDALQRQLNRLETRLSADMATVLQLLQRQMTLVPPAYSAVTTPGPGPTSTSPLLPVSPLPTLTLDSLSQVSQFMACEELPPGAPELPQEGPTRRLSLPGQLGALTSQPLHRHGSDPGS
Method: Compounds of the invention were pipetted into each well of pre-wet 96-well Millipore GF/C filter plates (#MSFCN6B50): 119 μl assay buffer, 1 μl test compound in 100% DMSO (or 100% DMSO only for total binding), 40 μl [3H] dofetilide (12.5 nM, final concentration 2.5 nM; Novartis radioisotope laboratory, East Hanover, N.J., USA, specific activity 15-45 Ci/mmol); 40 μl crude membrane suspension (ca. 15 μg protein). The final concentration of DMSO during the incubation was 0.5%. Incubations were performed at room temperature for 90 min. Non-specific binding (NSB) was defined as the binding remaining in the presence of 25 μM terfenadine (Sigma T9652). The incubations were terminated by rapid filtration on a Millipore filtration manifold, followed by three washes of 200 μA ice-cold assay buffer. The plates were left to dry overnight before adding 40 μA scintillant (MicroScint-20). The plates were then sealed (Sealing Tape SI, Nunc 236366) and read in a Wallac MicroBeta Trilux beta-counter for 1.5 min per well. Compounds were tested as 9-concentration response curves in duplicate, ranging from 30 μM to 3 nM in 1:3 dilution steps. Dilution curves were prepared in 100% DMSO. The reference compound (terfenadine) was tested as an eight-concentration response curve, ranging from 10 μM to 0.6 nM in 1:4 dilution steps.

PIM1 = PIM1 (Homo sapiens, UniProt P11309); experiment: KinaseGlo Pim1 ATP depletion assay; type: biochemical
PIM1, sequence (P11309 whole entry): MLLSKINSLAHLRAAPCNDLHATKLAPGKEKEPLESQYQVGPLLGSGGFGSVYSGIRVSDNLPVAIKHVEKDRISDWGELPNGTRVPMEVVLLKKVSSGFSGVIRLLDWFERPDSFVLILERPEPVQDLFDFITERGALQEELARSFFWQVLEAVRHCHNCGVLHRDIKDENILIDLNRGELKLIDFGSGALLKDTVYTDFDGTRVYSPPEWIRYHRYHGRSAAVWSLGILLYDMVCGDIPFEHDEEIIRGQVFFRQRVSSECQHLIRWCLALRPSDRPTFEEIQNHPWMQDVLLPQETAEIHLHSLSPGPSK
Method in brief: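 2.5 nM PIM1 preincubated 15 min with compound and 40 μM BAD peptide in 50 mM HEPES pH 7.5, 5 mM MgCl2, 1 mM DTT, 0.05% BSA, 2.5% DMSO. The reaction was started with 20 μM ATP (final) and run to about 50% ATP depletion. Remaining ATP read by KinaseGlo Plus luminescence to give IC50.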

PIM2 = PIM2 (Homo sapiens, UniProt Q9P1W9); experiment: KinaseGlo Pim2 ATP depletion assay; type: biochemical
PIM2, sequence (Q9P1W9 whole entry): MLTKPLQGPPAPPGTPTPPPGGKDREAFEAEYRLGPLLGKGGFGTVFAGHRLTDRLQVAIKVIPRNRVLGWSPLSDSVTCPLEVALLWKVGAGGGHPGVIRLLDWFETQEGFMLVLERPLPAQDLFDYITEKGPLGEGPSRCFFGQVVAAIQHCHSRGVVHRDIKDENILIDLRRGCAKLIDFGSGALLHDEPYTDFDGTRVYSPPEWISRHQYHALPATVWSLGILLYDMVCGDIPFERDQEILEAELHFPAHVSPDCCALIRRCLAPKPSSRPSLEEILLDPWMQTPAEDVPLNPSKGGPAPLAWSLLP
Method in brief: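 Luminescent ATP-depletion read-out of PIM2 phosphorylating BAD peptide (RSRHSSYPAGT-OH). Final conditions: 5 nM PIM2, 4 μM ATP, 10 μM peptide, 2.5% DMSO in 50 mM HEPES pH 7.5, 5 mM MgCl2, 1 mM DTT, 0.05% BSA. Enzyme–peptide preincubated 15 min with compound; reaction run to ~50% ATP depletion.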

PIM3 = PIM3 (Homo sapiens, UniProt Q86V86); experiment: KinaseGlo Pim3 ATP depletion assay; type: biochemical
Method in brief: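 Kinase was preincubated 15 min with BAD peptide in HEPES pH 7.5/MgCl2/DTT/BSA before ATP was added. Final concentrations were 40 μM ATP, 100 μM BAD peptide and 2.5% DMSO, with 5 nM enzyme. The reaction ran to ~50% ATP depletion and remaining ATP was read by KinaseGlo Plus luminescence.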

[1] = tested on: KMS11 (human myeloma cell line); experiment: Cell proliferation assay (CellTiter-Glo), KMS11; type: cell-based; conditions: KMS11-Luc cells
Method in brief: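 KMS11 cells in IMDM with 10% FBS and sodium pyruvate, seeded at 2000 cells/well on assay day. Compound added at 2× to equal volume of cells, incubated 3 days at 37° C. Viability read by CellTiter-Glo luminescence; EC50 derived.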

GSK3β, sequence (P49841 whole entry, species assumed): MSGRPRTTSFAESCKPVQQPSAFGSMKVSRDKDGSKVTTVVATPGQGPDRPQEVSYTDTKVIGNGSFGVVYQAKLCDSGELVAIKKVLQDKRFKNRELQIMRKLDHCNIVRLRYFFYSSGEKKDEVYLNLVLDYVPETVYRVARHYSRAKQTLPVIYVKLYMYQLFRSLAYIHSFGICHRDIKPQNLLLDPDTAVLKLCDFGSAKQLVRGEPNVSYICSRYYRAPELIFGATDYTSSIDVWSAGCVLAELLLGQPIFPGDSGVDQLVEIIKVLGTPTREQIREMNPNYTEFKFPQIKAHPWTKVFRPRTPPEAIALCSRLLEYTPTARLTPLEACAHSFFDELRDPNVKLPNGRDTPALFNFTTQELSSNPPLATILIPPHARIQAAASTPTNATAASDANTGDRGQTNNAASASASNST

SMILES	IC50 (GSK3β)	IC50 (PIM1)	IC50 (PIM2)	IC50 (PIM3)	EC50 ([1]; Homo sapiens, KMS-11)	EC50 [1]	IC50 (hERG)
CC1C(c2ccncc2NC(=O)c2ccc(F)c(-c3c(F)cccc3F)n2)OC(C)[C@@H](O)C1O (stereo in doubt) [Example 64, 6-(2,6-difluorophenyl)-N-(4-((2S,3R,4S,5S,6S)-4,5-dihydroxy-3,6-dimethyltetrahydro-2H-pyran-2-yl)pyridin-3-yl)-5-fluoropicolinamide]	549 nM	1 nM	16 nM	2 nM	800 nM	–	> 30000 nM
C[C@@H]1O[C@H](c2ccncc2NC(=O)c2ccc(F)c(-c3c(F)cccc3F)n2)[C@@H](F)[C@H](O)[C@@]1(C)O (stereo in doubt) [Example 71, 6-(2,6-difluorophenyl)-5-fluoro-N-(4-((2R,3S,4R,5R,6S)-3-fluoro-4,5-dihydroxy-5,6-dimethyltetrahydro-2H-pyran-2-yl)pyridin-3-yl)picolinamide]	1480 nM	1 nM	52 nM	6 nM	6400 nM	–	> 30000 nM
C[C@@H]1O[C@H](c2ccncc2NC(=O)c2ccc(F)c(-c3c(F)cccc3F)n2)C[C@H](O)[C@@]1(C)O (stereo in doubt) [Example 112, 6-(2,6-difluorophenyl)-N-(4-((2S,4S,5R,6S)-4,5-dihydroxy-5,6-dimethyltetrahydro-2H-pyran-2-yl)pyridin-3-yl)-5-fluoropicolinamide]	163 nM	1 nM	3 nM	2 nM	1200 nM	–	> 30000 nM
C[C@H]1C[C@@H](O)C[C@@H](c2ccncc2NC(=O)c2ccc(F)c(-c3c(F)cccc3F)n2)O1 (stereo in doubt) [Example 128, 6-(2,6-difluorophenyl)-5-fluoro-N-(4-((2S,4R,6S)-4-hydroxy-6-methyltetrahydro-2H-pyran-2-yl)pyridin-3-yl)picolinamide]	276 nM	1 nM	28 nM	6 nM	9100 nM	–	> 30000 nM
CC[C@]1(O)[C@H](O)C[C@H](c2ccncc2NC(=O)c2nc(-c3c(F)cccc3F)c(F)cc2N)O[C@@H]1C [Example 27, 3-amino-6-(2,6-difluorophenyl)-N-(4-((2R,4R,5S,6R)-5-ethyl-4,5-dihydroxy-6-methyltetrahydro-2H-pyran-2-yl)pyridin-3-yl)-5-fluoropicolinamide]	250 nM	1 nM	1 nM	1 nM	–	–	> 30000 nM
[2H][C@@H]1[C@@H](O)[C@H](O)[C@@H](CC)O[C@@]1([2H])c1ccncc1NC(=O)c1ccc(F)c(-c2c(F)cccc2F)n1 [Example 54, 6-(2,6-difluorophenyl)-N-(4-((2R,4R,5S,6R)-6-ethyl-4,5-dihydroxy-2,3-didueterotetrahydro-2H-pyran-2-yl)pyridin-3-yl)-5-fluoropicolinamide]	131 nM	1 nM	3 nM	2 nM	2100 nM	–	> 30000 nM
CC[C@@]1(O)[C@H](O)C[C@H](c2ccncc2NC(=O)c2ccc(F)c(-c3c(F)cccc3F)n2)O[C@@H]1C [Example 74, 6-(2,6-difluorophenyl)-N-(4-((2R,4R,5R,6R)-5-ethyl-4,5-dihydroxy-6-methyltetrahydro-2H-pyran-2-yl)pyridin-3-yl)-5-fluoropicolinamide]	316 nM	1 nM	11 nM	5 nM	3600 nM	–	> 30000 nM
C[C@H]1O[C@@H](c2ccncc2NC(=O)c2cncc(-c3ccccc3)n2)C[C@@H](O)[C@]1(C)O [Example 85, N-(4-((2R,4R,5S,6R)-4,5-dihydroxy-5,6-dimethyltetrahydro-2H-pyran-2-yl)pyridin-3-yl)-6-phenylpyrazine-2-carboxamide]	257 nM	221 nM	20600 nM	564 nM	> 10000 nM	–	> 30000 nM
C[C@@H]1O[C@H](c2ccncc2NC(=O)c2cncc(-c3ccccc3)n2)C[C@H](O)[C@@]1(C)O [Example 87, N-(4-((2S,4S,5R,6S)-4,5-dihydroxy-5,6-dimethyltetrahydro-2H-pyran-2-yl)pyridin-3-yl)-6-phenylpyrazine-2-carboxamide]	809 nM	937 nM	> 25000 nM	2670 nM	> 10000 nM	–	> 30000 nM

Compounds with a lower IC50 (GSK3β), results first:

IC50 (GSK3β)	IC50 (PIM1)	IC50 (PIM2)	IC50 (PIM3)	EC50 ([1]; Homo sapiens, KMS-11)	EC50 [1]	SMILES	IC50 (hERG)
101 nM	1 nM	3 nM	2 nM	–	1940 nM	CC[C@]1(O)[C@H](O)C[C@H](c2ccncc2NC(=O)c2nc(-c3c(F)cccc3F)ncc2N)O[C@@H]1C [Example 16, 5-amino-2-(2,6-difluorophenyl)-N-(4-((2R,4R,5S,6R)-5-ethyl-4,5-dihydroxy-6-methyltetrahydro-2H-pyran-2-yl)pyridin-3-yl)pyrimidine-4-carboxamide]	> 30000 nM
100 nM	1 nM	2 nM	1 nM	200 nM	–	CC[C@]1(O)[C@H](C)O[C@H](c2ccncc2NC(=O)c2ccc(F)c(-c3c(F)cccc3F)n2)C[C@@H]1O (stereo in doubt) [Example 76, 6-(2,6-difluorophenyl)-N-(4-((2S,4S,5R,6S)-5-ethyl-4,5-dihydroxy-6-methyltetrahydro-2H-pyran-2-yl)pyridin-3-yl)-5-fluoropicolinamide]	> 30000 nM
92 nM	–	28 nM	–	> 10000 nM	–	O=C(Nc1cnccc1[C@@H]1C[C@H](O)CC2(CC2)O1)c1ccc(F)c(-c2c(F)cccc2F)n1 [Example 60, 6-(2,6-difluorophenyl)-5-fluoro-N-(4-((5S,7S)-7-hydroxy-4-oxaspiro[2.5]octan-5-yl)pyridin-3-yl)picolinamide]	> 30000 nM
73 nM	1 nM	3 nM	2 nM	8300 nM	–	O=C(Nc1cnccc1[C@H]1C[C@@H](O)[C@H](O)[C@@H](CCl)O1)c1ccc(F)c(-c2c(F)cccc2F)n1 [Example 56, N-(4-((2R,4R,5S,6S)-6-(chloromethyl)-4,5-dihydroxytetrahydro-2H-pyran-2-yl)pyridin-3-yl)-6-(2,6-difluorophenyl)-5-fluoropicolinamide]	> 30000 nM
51 nM	1 nM	46 nM	3 nM	8300 nM	–	CC1C(c2ccncc2NC(=O)c2ccc(F)c(-c3c(F)cccc3F)n2)OC(C)[C@H](O)C1O (stereo in doubt) [Example 65, 6-(2,6-difluorophenyl)-N-(4-((2R,3S,4R,5R,6R)-4,5-dihydroxy-3,6-dimethyltetrahydro-2H-pyran-2-yl)pyridin-3-yl)-5-fluoropicolinamide]	> 30000 nM
25 nM	1 nM	324 nM	19 nM	9600 nM	–	C[C@H]1C[C@@H](O)C[C@@H](c2ccncc2NC(=O)c2csc(-c3c(F)cccc3F)n2)O1 (stereo in doubt) [Example 127, 2-(2,6-difluorophenyl)-N-(4-((2S,4R,6S)-4-hydroxy-6-methyltetrahydro-2H-pyran-2-yl)pyridin-3-yl)thiazole-4-carboxamide]	> 30000 nM
